Measured values: paper PMC10647861, “New Thiazolyl-Pyrazoline Derivatives as Potential Dual EGFR/HER2 Inhibitors: Design, Synthesis, Anticancer Activity Evaluation and In Silico Study” (Molecules, 2023)
Like-named read-outs stand apart in the source and are kept apart here.

Key:
MCF-7 [1] = test: MTT anti-proliferative assay toward MCF-7; conditions: Homo sapiens, MCF7, 48 h, read-out: IC50 toward MCF-7
Description: Anti-proliferative activities were done using the MTT colorimetric assay [58]. Cell viability was assessed after 48 h, and the viability was calculated relative to the control [59]
Experimental of biological evaluations
Anti-proliferative activities were done using MTT colorimetric assay.
Both cell lines were provided with 10% fetal bovine serum (FBS, Sigma-Aldrich, MO, USA) and 1% penicillin-streptomycin (Lonza, Belgium). Cells were incubated following standard tissue culture work. Cell viability was assessed after 48 h using MTT solution (Promega, USA). Absorbance was subsequently measured (at 570 nm) using ELISA microplate reader (BIO-RAD, model iMark, Japan). The viability was calculated relative to control.
EGFR and HER2 enzyme inhibition
(§1) Measurement of potential EGFR/ HER2 inhibitory activities was performed using EGFR
(§2) following equation was used to determine the proportion of autophosphorylation inhibition by
concentrations for each compound.
Cell cycle analysis and apoptotic assay
MCF-7 cells were seeded into 6-well culture plates (3-5× 10^5 cells/well) and incubated
48 h. Subsequently, cells and medium supernatants were gathered and washed with ice-cold PBS.
The cells were then suspended in 100 µL of the annexin binding buffer solution, which was described as "25 mM CaCl 2, 1.4 M NaCl, and 0.1 M Hepes/NaOH, pH 7.4”. The cell incubation and addition of Annexin V-FITC solution, and propidium iodide (PI) were done according to the reported procedure. Next, the Cytoflex FACS equipment was used to obtain the stained cells. The program CytExpert was used to analyze the data.

EGFR Kinase = EGFR Kinase (Homo sapiens, UniProt P00533); test: EGFR kinase inhibitory assay (BPS Bioscience kit)
Sequence of EGFR Kinase (P00533 25-1210): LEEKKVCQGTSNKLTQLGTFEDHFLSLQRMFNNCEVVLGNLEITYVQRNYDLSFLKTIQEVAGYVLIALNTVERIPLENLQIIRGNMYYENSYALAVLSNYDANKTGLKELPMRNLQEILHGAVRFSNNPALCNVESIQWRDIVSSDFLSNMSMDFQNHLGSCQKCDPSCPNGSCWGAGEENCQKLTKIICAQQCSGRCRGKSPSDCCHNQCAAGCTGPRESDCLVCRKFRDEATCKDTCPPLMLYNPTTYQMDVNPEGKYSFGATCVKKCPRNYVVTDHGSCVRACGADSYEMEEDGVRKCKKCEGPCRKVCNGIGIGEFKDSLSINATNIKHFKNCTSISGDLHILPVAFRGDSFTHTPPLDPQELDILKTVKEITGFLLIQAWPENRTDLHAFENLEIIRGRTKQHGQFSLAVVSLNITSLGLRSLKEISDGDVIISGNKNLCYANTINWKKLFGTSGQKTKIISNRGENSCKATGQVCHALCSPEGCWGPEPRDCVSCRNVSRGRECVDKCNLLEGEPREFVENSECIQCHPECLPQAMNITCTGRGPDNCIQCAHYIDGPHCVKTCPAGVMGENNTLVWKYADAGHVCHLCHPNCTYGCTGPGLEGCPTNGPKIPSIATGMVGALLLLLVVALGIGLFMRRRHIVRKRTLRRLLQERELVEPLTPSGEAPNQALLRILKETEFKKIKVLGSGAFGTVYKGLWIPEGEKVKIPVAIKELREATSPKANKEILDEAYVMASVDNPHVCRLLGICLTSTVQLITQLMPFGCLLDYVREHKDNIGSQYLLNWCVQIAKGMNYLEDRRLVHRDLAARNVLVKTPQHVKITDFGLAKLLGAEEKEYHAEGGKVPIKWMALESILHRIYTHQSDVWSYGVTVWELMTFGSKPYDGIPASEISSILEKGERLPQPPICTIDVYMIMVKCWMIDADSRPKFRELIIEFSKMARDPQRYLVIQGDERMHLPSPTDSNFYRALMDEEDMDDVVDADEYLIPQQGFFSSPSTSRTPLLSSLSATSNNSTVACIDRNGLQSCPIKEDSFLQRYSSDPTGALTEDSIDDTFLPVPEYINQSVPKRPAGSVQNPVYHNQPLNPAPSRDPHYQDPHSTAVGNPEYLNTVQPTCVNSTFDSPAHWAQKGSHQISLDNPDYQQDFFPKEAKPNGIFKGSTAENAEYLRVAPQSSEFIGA
Description: Experimental of biological evaluations
EGFR and HER2 enzyme inhibition
as §1, §2
concentrations for each compound.

MCF-10A = test: MTT cytotoxicity assay toward MCF-10A; format: cell-based; conditions: Homo sapiens, 48 h
MCF-7 cells = test: Annexin V/PI apoptosis analysis in MCF-7; format: cell-based; conditions: MCF-7, compound at its IC50, 48 h
MCF-7 [2] = test: Cell cycle analysis in MCF-7; format: cell-based; conditions: for DNA Content %G0-G1 / DNA Content %G2/M / DNA Content %S: MCF-7, compound at its IC50, 48 h
HER2 Kinase = HER2 Kinase (Homo sapiens, UniProt P04626); test: HER2 kinase inhibitory assay (BPS Bioscience kit)
Sequence of HER2 Kinase (P04626 23-1255): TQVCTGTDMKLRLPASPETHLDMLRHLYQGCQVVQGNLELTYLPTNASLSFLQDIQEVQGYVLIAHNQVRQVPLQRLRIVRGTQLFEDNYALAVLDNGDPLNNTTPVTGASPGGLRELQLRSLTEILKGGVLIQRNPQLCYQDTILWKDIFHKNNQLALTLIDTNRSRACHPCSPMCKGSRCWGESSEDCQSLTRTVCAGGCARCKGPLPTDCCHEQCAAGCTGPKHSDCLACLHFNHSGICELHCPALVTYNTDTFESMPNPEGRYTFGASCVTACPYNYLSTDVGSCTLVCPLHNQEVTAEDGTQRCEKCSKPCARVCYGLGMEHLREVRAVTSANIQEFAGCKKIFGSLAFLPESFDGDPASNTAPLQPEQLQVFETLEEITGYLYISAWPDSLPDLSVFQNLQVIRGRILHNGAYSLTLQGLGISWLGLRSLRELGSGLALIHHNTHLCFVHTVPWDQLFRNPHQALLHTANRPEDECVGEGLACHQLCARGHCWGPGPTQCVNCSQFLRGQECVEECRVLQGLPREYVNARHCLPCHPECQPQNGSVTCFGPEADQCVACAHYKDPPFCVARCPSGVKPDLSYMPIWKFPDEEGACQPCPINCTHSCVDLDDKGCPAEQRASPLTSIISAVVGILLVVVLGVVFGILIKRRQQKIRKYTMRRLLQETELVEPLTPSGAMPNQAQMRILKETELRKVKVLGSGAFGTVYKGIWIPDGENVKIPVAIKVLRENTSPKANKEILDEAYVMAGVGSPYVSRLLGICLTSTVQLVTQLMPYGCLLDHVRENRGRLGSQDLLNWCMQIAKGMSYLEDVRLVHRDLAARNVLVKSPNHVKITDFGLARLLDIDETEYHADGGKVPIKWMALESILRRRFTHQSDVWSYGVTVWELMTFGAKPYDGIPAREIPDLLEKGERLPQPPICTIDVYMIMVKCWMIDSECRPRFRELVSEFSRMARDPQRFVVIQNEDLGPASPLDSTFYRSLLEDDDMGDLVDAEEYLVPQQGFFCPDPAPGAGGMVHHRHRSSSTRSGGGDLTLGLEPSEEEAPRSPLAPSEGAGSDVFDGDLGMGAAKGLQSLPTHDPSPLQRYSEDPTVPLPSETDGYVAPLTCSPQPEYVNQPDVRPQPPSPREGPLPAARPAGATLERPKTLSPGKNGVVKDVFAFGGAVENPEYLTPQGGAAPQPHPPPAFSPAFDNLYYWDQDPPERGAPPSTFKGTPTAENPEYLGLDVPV
Description: Experimental of biological evaluations
EGFR and HER2 enzyme inhibition
as §1, §2
concentrations for each compound.

HER2 = conditions: cited from earlier work
MCF-7 [3] = conditions: cited from earlier work
EGFR = conditions: cited from earlier work
A549 = tested on: A549; parameters: method as in PMID 21802290; conditions: cited from earlier work
T-47D cell line = tested on: T-47D cell line; parameters: method as in PMID 37049966; conditions: cited from earlier work

COc1ccc(C2CC(c3ccc(OC)c(OC)c3)=NN2c2nc(C)c(N=Nc3ccc(Cl)cc3)s2)cc1 (centres unmarked) [Compound 4a, 5-((4-Chlorophenyl)diazenyl)-2-(3-(3,4-dimethoxyphenyl)-5-(4-methoxyphenyl)-4,5-dihydro-1H-pyrazol-1-yl)-4-methylthiazole] showed an IC50 (MCF-7 [1]) of 18.6 ± 0.19 µM and a melting point of 192 to 194 °C.
COc1ccc(C2CC(c3ccc(OC)c(OC)c3)=NN2c2nc(C)c(N=Nc3ccc(S(N)(=O)=O)cc3)s2)cc1 (centres unmarked) [Compound 4b, 4-((2-(3-(3,4-Dimethoxyphenyl)-5-(4-methoxyphenyl)-4,5-dihydro-1H-pyrazol-1-yl)-4-methylthiazol-5-yl)diazenyl)benzenesulfonamide] gave an IC50 (MCF-7 [1]) of 17.12 ± 0.15 µM and a melting point of 200 to 202 °C.
COc1ccc(C2=NN(c3nc(C)c(N=Nc4ccc(Cl)cc4)s3)C(c3ccc(Cl)cc3)C2)cc1OC (centres unmarked) [Compound 4c, 2-(5-(4-Chlorophenyl)-3-(3,4-dimethoxyphenyl)-4,5-dihydro-1H-pyrazol-1-yl)-5-((4-chlorophenyl)diazenyl)-4-methylthiazole] gave an IC50 (MCF-7 [1]) of 18.7 ± 0.22 µM and a melting point of 210 to 212 °C.
Work on COc1ccc(C2=NN(c3nc(C)c(N=Nc4ccc(S(N)(=O)=O)cc4)s3)C(c3ccc(Cl)cc3)C2)cc1OC (centres unmarked) [Compound 4d, 4-((2-(5-(4-Chlorophenyl)-3-(3,4-dimethoxyphenyl)-4,5-dihydro-1H-pyrazol-1-yl)-4-methylthiazol-5-yl)diazenyl)benzenesulfonamide] yielded an IC50 (MCF-7 [1]) of 17.1 ± 0.21 µM and a melting point of 208 to 210 °C.
In the case of COc1ccc(C2CC(c3ccc(OC)c(OC)c3)=NN2C2=NC(=O)C(=NNc3ccc(Cl)cc3)S2)cc1 (centres unmarked) [Compound 5a, 5-(2-(4-Chlorophenyl)hydrazineylidene)-2-(3-(3,4-dimethoxyphenyl)-5-(4-methoxyphenyl)-4,5-dihydro-1H-pyrazol-1-yl)thiazol-4(5H)-one], the IC50 (MCF-7 [1]) is reported as 30.24 ± 0.24 µM.
COc1ccc(C2CC(c3ccc(OC)c(OC)c3)=NN2C2=NC(=O)C(=NNc3ccc(S(N)(=O)=O)cc3)S2)cc1 (centres unmarked) [Compound 5b, 4-(2-(2-(3-(3,4-Dimethoxyphenyl)-5-(4-methoxyphenyl)-4,5-dihydro-1H-pyrazol-1-yl)-4-oxothiazol-5(4H)-ylidene)hydrazineyl)benzenesulfonamide] gave an IC50 (MCF-7 [1]) of 27.31 ± 0.26 µM and a melting point of 249 to 251 °C.
COc1ccc(C2=NN(C3=NC(=O)C(=NNc4ccc(Cl)cc4)S3)C(c3ccc(Cl)cc3)C2)cc1OC (centres unmarked) [Compound 5c, 2-(5-(4-Chlorophenyl)-3-(3,4-dimethoxyphenyl)-4,5-dihydro-1H-pyrazol-1-yl)-5-(2-(4-chlorophenyl)hydrazineylidene)thiazol-4(5H)-one] gave an IC50 (MCF-7 [1]) of 28.03 ± 0.25 µM and a melting point of 278 to 280 °C.
Work on COc1ccc(C2=NN(C3=NC(=O)C(=NNc4ccc(S(N)(=O)=O)cc4)S3)C(c3ccc(Cl)cc3)C2)cc1OC (centres unmarked) [Compound 5d, 4-(2-(2-(5-(4-Chlorophenyl)-3-(3,4-dimethoxyphenyl)-4,5-dihydro-1H-pyrazol-1-yl)-4-oxothiazol-5(4H)-ylidene)hydrazineyl)benzenesulfonamide] yielded an IC50 (MCF-7 [1]) of 25.7 ± 0.12 µM and a melting point of 292 to 294 °C.
COc1ccc(C2CC(c3ccc(OC)c(OC)c3)=NN2C2=NC(=O)CS2)cc1 (centres unmarked) [Compound 6a, 2-(3-(3,4-Dimethoxyphenyl)-5-(4-methoxyphenyl)-4,5-dihydro-1H-pyrazol-1-yl)thiazol-4(5H)-one] showed an IC50 (MCF-7 [1]) of 4.08 ± 0.08 µM, an IC50 (EGFR Kinase) of 0.024 ± 0.005 µM and an IC50 (MCF-10A) of no less than 50 µM. For the same compound, the “Apoptosis Early” value (MCF-7 cells) was 28.17%, the “Apoptosis Late” value (MCF-7 cells) was 17.98% and the Necrosis (MCF-7 cells) was 4.88%. The “DNA Content %G0-G1” value (MCF-7 [2]) was 69.82%, the “DNA Content %G2/M” value (MCF-7 [2]) was 8.12% and the “DNA Content %S” value (MCF-7 [2]) was 22.06%. For the same compound, the IC50 (HER2 Kinase) was 0.047 ± 0.008 µM.
For COc1ccc(C2=NN(C3=NC(=O)CS3)C(c3ccc(Cl)cc3)C2)cc1OC (centres unmarked) [Compound 6b, 2-(5-(4-Chlorophenyl)-3-(3,4-dimethoxyphenyl)-4,5-dihydro-1H-pyrazol-1-yl)thiazol-4(5H)-one], the IC50 (MCF-7 [1]) was 5.64 ± 0.11 µM, the IC50 (EGFR Kinase) was 0.026 ± 0.002 µM and the IC50 (MCF-10A) was 32.8 ± 1.27 µM. It also gave an IC50 (HER2 Kinase) of 0.081 ± 0.006 µM and a melting point of 208 to 210 °C.
Compound COc1ccc(C2CC(c3ccc(OC)c(OC)c3)=NN2C2=NC(=O)C(=Cc3ccccc3)S2)cc1 (centres unmarked) [Compound 7a, 5-Benzylidene-2-(3-(3,4-dimethoxyphenyl)-5-(4-methoxyphenyl)-4,5-dihydro-1H-pyrazol-1-yl)thiazol-4(5H)-one] has an IC50 (MCF-7 [1]) of 17.79 ± 0.14 µM and a melting point of 294 to 296 °C.
For COc1ccc(C=C2SC(N3N=C(c4ccc(OC)c(OC)c4)CC3c3ccc(OC)cc3)=NC2=O)cc1 (centres unmarked) [Compound 7b, 2-(3-(3,4-Dimethoxyphenyl)-5-(4-methoxyphenyl)-4,5-dihydro-1H-pyrazol-1-yl)-5-(4-methoxybenzylidene)thiazol-4(5H)-one], the IC50 (MCF-7 [1]) was 20 ± 0.22 µM and the melting point was 245 to 247 °C.
With COc1ccc(C2=NN(C3=NC(=O)C(=Cc4ccccc4)S3)C(c3ccc(Cl)cc3)C2)cc1OC (centres unmarked) [Compound 7c, 5-Benzylidene-2-(5-(4-chlorophenyl)-3-(3,4-dimethoxyphenyl)-4,5-dihydro-1H-pyrazol-1-yl)thiazol-4(5H)-one] the IC50 (MCF-7 [1]) was 21.2 ± 0.24 µM and the melting point was 283 to 285 °C.
In the case of COc1ccc(C=C2SC(N3N=C(c4ccc(OC)c(OC)c4)CC3c3ccc(Cl)cc3)=NC2=O)cc1 (centres unmarked) [Compound 7d, 2-(5-(4-Chlorophenyl)-3-(3,4-dimethoxyphenyl)-4,5-dihydro-1H-pyrazol-1-yl)-5-(4-methoxybenzylidene)thiazol-4(5H)-one], the IC50 (MCF-7 [1]) is reported as 20.17 ± 0.19 µM and the melting point is reported as 250 to 252 °C.
Work on COc1ccc(C2CC(c3ccc(OC)c(OC)c3)=NN2C2=NC(=O)C(=C3C(=O)Nc4ccccc43)S2)cc1 (centres unmarked) [Compound 8a, 2-(3-(3,4-Dimethoxyphenyl)-5-(4-methoxyphenyl)-4,5-dihydro-1H-pyrazol-1-yl)-5-(2-oxoindolin-3-ylidene)thiazol-4(5H)-one] yielded an IC50 (MCF-7 [1]) of 21.33 ± 0.21 µM and a melting point greater than 300 °C.
COc1ccc(C2=NN(C3=NC(=O)C(=C4C(=O)Nc5ccccc54)S3)C(c3ccc(Cl)cc3)C2)cc1OC (centres unmarked) [Compound 8b, 2-(5-(4-Chlorophenyl)-3-(3,4-dimethoxyphenyl)-4,5-dihydro-1H-pyrazol-1-yl)-5-(2-oxoindolin-3-ylidene)thiazol-4(5H)-one] gave an IC50 (MCF-7 [1]) of 19.5 ± 0.27 µM and a melting point greater than 300 °C.
Work on COc1ccc(C2CC(c3ccc(OC)c(OC)c3)=NN2c2nc(-c3cc4ccccc4oc3=O)cs2)cc1 (centres unmarked) [Compound 10a, 3-(2-(3-(3,4-Dimethoxyphenyl)-5-(4-methoxyphenyl)-4,5-dihydro-1H-pyrazol-1-yl)thiazol-4-yl)-2H-chromen-2-one] yielded an IC50 (MCF-7 [1]) of 3.37 ± 0.13 µM, an IC50 (EGFR Kinase) of 0.005 ± 0.002 µM and an IC50 (MCF-10A) of no less than 50 µM. For the same compound, the “Apoptosis Early” value (MCF-7 cells) was 19.22%, the “Apoptosis Late” value (MCF-7 cells) was 15.91% and the Necrosis (MCF-7 cells) was 7.53%. For the same compound, the “DNA Content %G0-G1” value (MCF-7 [2]) was 66.41%, the “DNA Content %G2/M” value (MCF-7 [2]) was 4.04% and the “DNA Content %S” value (MCF-7 [2]) was 29.55%. For the same compound, the “cell accumulation at S phase relative to control” value (MCF-7 [2]; MCF-7, compound at its IC50, control 26.33%) was 1.12 folds, the “cell accumulation at G0-G1 relative to control” value (MCF-7 [2]; MCF-7, compound at its IC50, control 62.59%) was 1.06 folds and the IC50 (HER2 Kinase) was 0.022 ± 0.005 µM.
COc1ccc(C2=NN(c3nc(-c4cc5ccccc5oc4=O)cs3)C(c3ccc(Cl)cc3)C2)cc1OC (centres unmarked) [Compound 10b, 3-(2-(5-(4-Chlorophenyl)-3-(3,4-dimethoxyphenyl)-4,5-dihydro-1H-pyrazol-1-yl)thiazol-4-yl)-2H-chromen-2-one] gave an IC50 (MCF-7 [1]) of 3.54 ± 0.07 µM, an IC50 (EGFR Kinase) of 0.029 ± 0.004 µM and an IC50 (MCF-10A) of 27.1 ± 1.98 µM. The IC50 (HER2 Kinase) was 0.065 ± 0.007 µM and the melting point was 238 to 240 °C.
For Brc1ccc(C2=NN(c3nc(-c4ccc(Br)cc4)cs3)C(c3ccc4c(c3)OCO4)C2)cc1 (centres unmarked) [III], the IC50 (HER2) is listed as 0.18 µM and the IC50 (MCF-7 [3]) is listed as 0.09 µM.
For COc1ccc(C2CC(c3ccc(Cl)cc3Cl)=NN2c2nc(C)c(C(=O)Nc3ccccc3)s2)cc1OC (centres unmarked) [II], the IC50 (EGFR) is listed as 0.032 µM and the IC50 (A549) is listed as 2.92 µM.
For COc1ccc(C2CC(c3ccc(OC)c(OC)c3)=NN2c2nc(-c3ccccc3)cs2)cc1 (centres unmarked) [IV], the IC50 (EGFR) is given as 0.009 µM, the IC50 (HER2) is given as 0.013 µM and the IC50 (MCF-7 [3]) is given as 7.21 µM.
For Cc1ccc(C2=NN(c3nc(-c4ccc(Cl)cc4)cs3)C(c3ccc(F)cc3)C2)cc1C (centres unmarked) [I], the IC50 (EGFR) is given as 0.06 µM and the IC50 (MCF-7 [3]) is given as 0.07 µM.
In the case of CS(=O)(=O)CCNCc1ccc(-c2ccc3ncnc(Nc4ccc(OCc5cccc(F)c5)c(Cl)c4)c3c2)o1 [Lapatinib, reference compound], the IC50 (MCF-7 [1]) is reported as 5.88 ± 0.04 µM and the IC50 (MCF-10A) is reported as no less than 50 µM.
For Cc1ccc(C2=NN(C3=NC(=O)/C(=C/c4ccc(O)cc4)S3)C(c3ccc(F)cc3)C2)cc1 (centres unmarked) [VI], the IC50 (EGFR) is listed as 0.083 µM and the IC50 (T-47D cell line) is listed as 1.15 µM.
In the case of COc1ccc2nc(Cl)c(C3CC(c4ccc(C)cc4)=NN3c3nc(-c4ccc(F)cc4)cs3)cc2c1 (centres unmarked) [V], the IC50 (EGFR) is given as 0.031 µM and the IC50 (MCF-7 [3]) is given as 0.227 µM.
